This is an account of results in patent US8431597B2, “Benzimidazole derivatives” (Pfizer Inc., priority 2007, dated 2013).

Structures are written as SMILES. Counter-ions that a name gives are not always drawn.

The inhibition is the drop in the measured response relative to a control, in per cent.

In the first test the target is T1, Smoothened (SMO) (Mus musculus, UniProt P56726).
T1 construct: C3H10T1/2 cells (ATCC #CCL-226) were split and seeded; endogenous in cells; host or cells: C3H10T1/2 (ATCC #CCL-226)
T1 sequence (P56726 33-793): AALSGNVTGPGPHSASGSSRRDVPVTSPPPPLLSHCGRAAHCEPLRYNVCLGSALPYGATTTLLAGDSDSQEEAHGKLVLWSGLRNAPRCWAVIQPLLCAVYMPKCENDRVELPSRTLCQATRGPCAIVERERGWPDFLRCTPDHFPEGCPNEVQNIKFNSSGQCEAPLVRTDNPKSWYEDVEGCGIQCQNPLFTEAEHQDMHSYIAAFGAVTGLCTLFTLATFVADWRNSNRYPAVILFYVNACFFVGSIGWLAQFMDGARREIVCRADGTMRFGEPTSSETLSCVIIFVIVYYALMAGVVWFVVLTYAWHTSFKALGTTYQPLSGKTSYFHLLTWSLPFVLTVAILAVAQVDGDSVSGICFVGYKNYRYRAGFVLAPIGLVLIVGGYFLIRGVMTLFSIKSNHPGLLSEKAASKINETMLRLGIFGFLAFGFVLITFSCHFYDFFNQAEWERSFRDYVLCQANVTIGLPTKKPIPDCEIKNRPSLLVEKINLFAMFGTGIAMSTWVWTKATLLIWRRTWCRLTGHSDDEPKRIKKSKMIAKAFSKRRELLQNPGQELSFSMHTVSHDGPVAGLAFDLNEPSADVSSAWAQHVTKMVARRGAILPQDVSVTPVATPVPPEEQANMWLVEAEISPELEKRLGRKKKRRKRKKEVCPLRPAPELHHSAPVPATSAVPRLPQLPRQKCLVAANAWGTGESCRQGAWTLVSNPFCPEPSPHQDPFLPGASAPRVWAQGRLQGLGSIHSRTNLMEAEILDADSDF
Put plainly: Smoothened (SMO)/Sonic Hedgehog (SHh) Transient Transcriptional Activation Assay (Gli-luciferase reporter in C3H10T1/2 cells). Type of test: cell-based, murine. Particulars: 2 μM compound; transfected C3H10T1/2 cells, recombinant human SHh 250 ng/mL, 20 hours, luciferase readout; 2 µM. The method, then: As noted above, the compounds of the invention are useful as inhibitors of SMO. • Methods for determining the in vitro activity of these compounds are described below: Smoothened (SMO)/Sonic Hedgehog (SHh) Transient Transcriptional Activation Assay
On Day 1, 2×10^6 C3H10T1/2 cells (ATCC #CCL-226) were split and seeded in 12 mL of growth medium Basal Medium Eagle (BME, Invitrogen #21010-046) supplemented with 2 mM L-glutamine (Invitrogen #25030-081), 0.1 units/mL penicillin and 0.1 μg/mL streptomycin (Invitrogen #15140-122), and 10% Fetal Bovine Serum (FBS, Invitrogen #16140-071) in a T-75 flask (Costar #3376). They were allowed to attach for 4 hours at 37° C., 5% CO2. The cells were then transfected using Fugene 6 (Roch #11 814 443 001) in the following reaction: 48 μL Fugene 6 and 745 μL Opti-MEM (Invitrogen #31985-070) were mixed and allowed to sit at room temperature for 5 minutes. 8 μg of pGL4.14/mGli(CS) DNA (10× murine Gli response elements and minimal CS promoter) and 0.5 μg of pEGFP DNA (Clontech) were added, gently mixed and incubated at room temperature for 20 minutes. This entire transfection mix was then added to the T-75 flask containing the cells. The cells were incubated at 37° C., 5% CO2 for 18-24 hours.
On Day 2, the transfected cells were trypsinized and seeded into white 96 well plates (Costar #3917) in 100 μL/well of growth medium at a concentration of 20,000 cells/well. The cells were allowed to recover for 4 hours before adding serum starvation medium Dulbecco's Modified Eagle Medium (DMEM, Invitrogen #21063-029) supplemented with 2 mM L-glutamine, 0.1 units/mL penicillin and 0.1 μg/mL streptomycin, and 0.5% Calf Serum (CS, Invitrogen #26170-043). The growth media was aspirated off, and the cells were rinsed with 100 μL of starvation media. 95 μL of starvation media was then added to each well. The cells were incubated for 20 hours at 37° C., 5% CO2.
On Day 3, cells were dosed with test compounds at a final concentration ranging from 2 μM to 2 nM. Immediately after dosing cells with compounds, recombinant human sonic hedgehog (SHh, R&D Systems #1845-SH) was add to a final concentration of 250 ng/mL. A 25 μg vial of SHh was reconstituted with 250 μL PBS/0.1% BSA to give a 100 ng/μL working stock. This working stock was then diluted 1:20 in starvation media. The transfected cells were incubated with compounds and SHh for 20 hours at 37° C., 5% CO2.
Luciferase assays were conducted on Day 4 using Dual-Glo Luciferase assay system (Promega #E2940) according to Promega's protocol. Briefly, Dual-Glo luciferase reagent was made up and 100 μL were added to each well of the 96 well plate containing media. Plates were shaken at room temperature for 10 minutes, and then read on TopCount (Perkin-Elmer). The luminescence was recorded.
Background: In a reporter assay the amount or activity of a reporter protein is the signal.
Consider `O=C(N[C@@H]1CN[C@H](c2nc3ccccc3[nH]2)C1)c1ccc2c(c1)OCCO2` [Example 11, N-[(3S,5S)-5-(1H-benzimidazol-2-yl)pyrrolidin-3-yl]-2,3-dihydro-1,4-benzodioxine-6-carboxamide], for which the “SMO CELL % INHIBITION @ 2 μM” value was 110.10%.

The same test, now with this note: C3H 10T1/2, 2 μM compound; transfected C3H10T1/2 cells, recombinant human SHh 250 ng/mL, 20 hours, luciferase readout; read-out: SMO CELL % INHIBITION @ 2 μM.
For `COc1ccc(C(=O)N[C@@H]2CCN(C)[C@@H](c3nc4ccccc4[nH]3)C2)cc1F` [Example 117, N-[(2R,4R)-2-(1H-benzimidazol-2-yl)-1-methylpiperidin-4-yl]-3-fluoro-4-methoxybenzamide trifluoroacetate], the inhibition at 2 µM is 65.4%.

On to `Cc1cc2nc([C@H]3C[C@H](NC(=O)Nc4ccc(C(F)(F)F)nc4)CCN3C)[nH]c2cc1C` [Example 77, 1-[(2R,4R)-2-(5,6-dimethyl-1H-benzimidazol-2-yl)-1-methylpiperidin-4-yl]-3-[6-(trifluoromethyl)pyridin-3-yl]urea hydrochloride], for which the inhibition at 2 µM was determined as 100%.

For the compound `CN(C)c1ccc2[nH]c([C@H]3C[C@H](NC(=O)c4ccc5c(c4)OCCO5)CCN3C)nc2c1` [Example 27, N-{(2R,4R)-2-[5-(dimethylamino)-1H-benzimidazol-2-yl]-1-methylpiperidin-4-yl}-2,3-dihydro-1,4-benzodioxine-6-carboxamide hydrochloride], the inhibition at 2 µM is 108%.

For `Cc1ccc(NC(=O)N[C@@H]2CCN(C)[C@@H](c3nc4cc(C(F)(F)F)ccc4[nH]3)C2)cn1` [Example 128, 1-(6-methylpyridin-3-yl)-3-{(2R,4R)-1-methyl-2-[5-(trifluoromethyl)-1H-benzimidazol-2-yl]piperidin-4-yl}urea hydrochloride], the inhibition at 2 µM turned out to be 102%.

As for `COc1ccc2[nH]c([C@H]3C[C@H](NC(=O)Nc4ccc(C)nc4)CCN3C)nc2c1` [Example 129, 1-[(2R,4R)-2-(5-methoxy-1H-benzimidazol-2-yl)-1-methylpiperidin-4-yl]-3-(6-methylpyridin-3-yl)urea hydrochloride], the inhibition at 2 µM was 104%.

As for `COc1ccc(NC(=O)N[C@@H]2CCN(C)[C@@H](c3nc4ccc(Cl)cc4[nH]3)C2)cn1` [Example 133, 1-[(2R,4R)-2-(6-chloro-1H-benzimidazol-2-yl)-1-methylpiperidin-4-yl]-3-(6-methoxypyridin-3-yl)urea hydrochloride], the inhibition at 2 µM came out at 108%.

Consider `CN1CC[C@@H](NC(=O)c2ccc3c(c2)CCCO3)C[C@@H]1c1nc2ccccc2[nH]1` [Example 33, N-[(2R,4R)-2-(1H-benzimidazol-2-yl)-1-methylpiperidin-4-yl]chromane-6-carboxamide hydrochloride], for which the inhibition at 2 µM was 114%.

With `Cc1cc(NC(=O)N[C@@H]2CCN(C)[C@@H](c3nc4ccccc4[nH]3)C2)cnc1C` [Example 71, 1-[(2R,4R)-2-(1H-benzimidazol-2-yl)-1-methylpiperidin-4-yl]-3-(5,6-dimethylpyridin-3-yl)urea hydrochloride], the inhibition at 2 µM came out at 101%.

With `CN1CC[C@@H](NC(=O)Cc2cccc(F)c2)C[C@@H]1c1nc2ccccc2[nH]1` [Example 123, N-[(2R,4R)-2-(1H-benzimidazol-2-yl)-1-methylpiperidin-4-yl]-2-(3-fluorophenyl)acetamide trifluoroacetate], the inhibition at 2 µM came to 52.2%.

For `CN1CC[C@@H](NC(=O)Cc2nc3ccccc3o2)C[C@@H]1c1nc2ccccc2[nH]1` [Example 114, N-[(2R,4R)-2-(1H-benzimidazol-2-yl)-1-methylpiperidin-4-yl]-2-(1,3-benzoxazol-2-yl)acetamide trifluoroacetate], the inhibition at 2 µM was 75.5%.

`CSc1ccccc1C(=O)N[C@@H]1CCN(C)[C@@H](c2nc3ccccc3[nH]2)C1` [Example 107, N-[(2R,4R)-2-(1H-benzimidazol-2-yl)-1-methylpiperidin-4-yl]-2-(methylthio)benzamide trifluoroacetate]: the inhibition at 2 µM stood at 88.3%.

With `CN1CC[C@@H](NC(=O)c2ccc3nonc3c2)C[C@@H]1c1nc2ccccc2[nH]1` [Example 119, N-[(2R,4R)-2-(1H-benzimidazol-2-yl)-1-methylpiperidin-4-yl]-2,1,3-benzoxadiazole-5-carboxamide trifluoroacetate], the inhibition at 2 µM worked out at 64.5%.

Take `CN1CC[C@@H](NC(=O)c2ccc(C#N)cc2)C[C@@H]1c1nc2ccccc2[nH]1` [Example 121, N-[(2R,4R)-2-(1H-benzimidazol-2-yl)-1-methylpiperidin-4-yl]-4-cyanobenzamide trifluoroacetate]: the inhibition at 2 µM stood at 62.3%.

`CN1CC[C@@H](NC(=O)Nc2ccc(-c3ccccc3)s2)C[C@@H]1c1nc2ccccc2[nH]1` [Example 90, 1-[(2R,4R)-2-(1H-benzimidazol-2-yl)-1-methylpiperidin-4-yl]-3-(5-phenyl-2-thienyl)urea hydrochloride]: the inhibition at 2 µM turned out to be 87.9%.

Regarding `COc1ccc2[nH]c([C@H]3C[C@H](NC(=O)Nc4ccc(OC)nc4)CCN3C)nc2c1` [Example 136, 1-[(2R,4R)-2-(5-methoxy-1H-benzimidazol-2-yl)-1-methylpiperidin-4-y)]-3-(6-methoxypyridin-3-yl)urea hydrochloride], the inhibition at 2 µM came out at 106%.

Turning to `COc1ccc2[nH]c([C@H]3C[C@H](NC(=O)Nc4ccc(C#N)cc4)CCN3C)nc2c1` [Example 29, 1-(4-cyanophenyl)-3-[(2R,4R)-2-(5-methoxy-1H-benzimidazol-2-yl)-1-methylpiperidin-4-yl]urea hydrochloride], the inhibition at 2 µM amounted to 108%.

Consider `CN1CC[C@@H](NC(=O)c2ccc3c(c2)OCCO3)C[C@@H]1c1nc2ccc(Cl)cc2[nH]1` [Example 34, N-[(2R,4R)-2-(6-chloro-1H-benzimidazol-2-yl)-1-methylpiperidin-4-yl]-2,3-dihydro-1,4-benzodioxine-6-carboxamide hydrochloride], for which the inhibition at 2 µM was 107%.

Consider `CN1CC[C@@H](NC(=O)c2ccc3c(c2)CCC(=O)N3)C[C@@H]1c1nc2ccccc2[nH]1` [Example 87, N-[(2R,4R)-2-(1H-benzimidazol-2-yl)-1-methylpiperidin-4-yl]-2-oxo-1,2,3,4-tetrahydroquinoline-6-carboxamide hydrochloride], for which the inhibition at 2 µM turned out to be 92.3%.

As for `Cc1ccc2nccc(C(=O)N[C@@H]3CCN(C)[C@@H](c4nc5ccccc5[nH]4)C3)c2c1` [Example 103, N-[(2R,4R)-2-(1H-benzimidazol-2-yl)-1-methylpiperidin-4-yl]-6-methylquinoline-4-carboxamide trifluoroacetate], the inhibition at 2 µM was determined as 100%.

`O=C(N[C@@H]1CCN(CC2CC2)[C@@H](c2nc3ccccc3[nH]2)C1)c1ccc2c(c1)OCCO2` [Example 89, N-[(2R,4R)-2-(1H-benzimidazol-2-yl)-1-(cyclopropyl-methyl)piperidin-4-yl]-2,3-dihydro-1,4-benzodioxine-6-carboxamide hydrochloride]: the inhibition at 2 µM stood at 88.2%.

As for `CN1CC[C@@H](NC(=O)Cn2ncc3ccccc32)C[C@@H]1c1nc2ccccc2[nH]1` [Example 109, N-[(2R,4R)-2-(1H-benzimidazol-2-yl)-1-methylpiperidin-4-yl]-2-(1H-indazol-1-yl)acetamide trifluoroacetate], the inhibition at 2 µM was 85.2%.

As for `CN1CC[C@@H](NC(=O)c2cc(-c3ccncc3)n[nH]2)C[C@@H]1c1nc2ccccc2[nH]1` [Example 74, N-[(2R,4R)-2-(1H-benzimidazol-2-yl)-1-methylpiperidin-4-yl]-3-pyridin-4-yl-1H-pyrazole-5-carboxamide hydrochloride], the inhibition at 2 µM worked out at 101%.

As for `CN1CC[C@@H](NC(=O)c2ccc3c(c2)NC(=O)CO3)C[C@@H]1c1nc2ccccc2[nH]1` [Example 100, N-[(2R,4R)-2-(1H-benzimidazol-2-yl)-1-methylpiperidin-4-yl]-3-oxo-3,4-dihydro-2H-1,4-benzoxazine-6-carboxamide hydrochloride], the inhibition at 2 µM turned out to be 63.7%.
